In patent publication US8633005B2, “Isocyclomaltooligosaccharide(s), isocyclomaltooligosaccharide-forming enzyme, their preparation and uses” (Hayashibara Co., Ltd., priority 2004, dated 2014):
Like-named read-outs stand apart in the source and are kept apart here.

What was measured:
pancreas α-amylase = assay: Digestibility of ICM by pancreas α-amylase; details: reducing saccharides/total saccharides x100
Source text: (§1) 43, 23-29 (1990), the digestibility of ICM by salivary α-amylase, artificial gastric juice, pancreas amylase, and small intestinal enzymes were investigated using ICG5, used in Experiment 15. […] In Table 18, the digestion (%) means a value calculated by the formula: Digestion (%)=(The amount of reducing saccharides/The amount of the total saccharides)×100 , in respective reaction described above.

small intestinal enzymes [1] = assay: Digestibility of ICM by small intestinal enzymes; details: reducing saccharides/total saccharides x100
Source text: as §1

ICM-forming enzyme = assay: Action on various saccharides (substrate specificity, TLC); format: biochemical, Bacillus circulans AM7; design: key: −: Not changed; +: Spot of substrate is slightly decreased and the formation of ICM are detected; ++: Spot of substrate is markedly decreased and the formation of ICM are detected; +++: Spot of substrate is virtually disappeared and the formation of ICM are detected; details: substrate 2% (w/v), one unit/g-substrate enzyme, 40° C., pH 6.0, 24 hours
Procedure: Substrate specificity of ICM-forming enzyme was investigated using various saccharides as substrates. Substrate solutions were prepared by dissolving maltose, maltotriose, maltotetraose, maltopentaose, maltohexaose, maltoheptaose, neotrehalose, trehalose, kojibiose, nigerose, isomaltose, isomaltotriose, panose, isopanose, maltitol, maltotriitol, α-, β-, or γ-cyclodextrin, amylose, soluble starch, glycogen, pullulan or dextran in water. Each substrate solution was admixed with acetate buffer (pH 6.0) and CaCl2 to give final concentrations of 20 mM and 1 mM, respectively. […] Substrate concentration was set to 2% (w/v) and followed by the enzyme reaction at 40° C. and pH 6.0 for 24 hours. To examine the saccharides in each mixture before and after the reaction, saccharides were separated by silica gel thin-layer chromatography (hereinafter, simply abbreviated as “TLC”) using “KIESELGEL 60”, a TLC aluminum plate (10×20 cm) and a solvent (n-butanol/pyridine/water, volume ratio of 6:4:1) and two-times ascending method. The separated saccharides on the plate were detected by visualizing the spots with sulfate-methanol method. By the above TLC analyses, the enzymatic action and the degree of the reaction of ICM-forming enzyme on each substrate were confirmed.

salivary α-amylase = target: T1, salivary α-amylase (Homo sapiens, UniProt P0DUB6); assay: Digestibility of ICM by salivary α-amylase; details: reducing saccharides/total saccharides x100
T1 sequence (P0DUB6 16-511): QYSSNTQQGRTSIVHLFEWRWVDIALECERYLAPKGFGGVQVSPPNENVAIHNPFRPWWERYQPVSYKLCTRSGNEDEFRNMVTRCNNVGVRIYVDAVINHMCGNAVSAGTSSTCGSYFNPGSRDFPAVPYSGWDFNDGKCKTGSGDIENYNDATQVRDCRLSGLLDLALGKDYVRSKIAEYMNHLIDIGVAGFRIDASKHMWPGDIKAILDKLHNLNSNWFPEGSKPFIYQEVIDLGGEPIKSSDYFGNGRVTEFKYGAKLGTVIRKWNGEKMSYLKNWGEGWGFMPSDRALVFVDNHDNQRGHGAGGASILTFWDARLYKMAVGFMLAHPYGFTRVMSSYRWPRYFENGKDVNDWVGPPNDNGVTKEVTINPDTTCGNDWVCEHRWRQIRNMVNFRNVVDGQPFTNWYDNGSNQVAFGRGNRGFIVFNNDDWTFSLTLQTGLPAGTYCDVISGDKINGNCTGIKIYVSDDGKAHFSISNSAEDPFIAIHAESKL
Source text: as §1

[2] = Digestibility of ICM by artificial gastric juice; details: reducing saccharides/total saccharides x100
Source text: as §1

small intestinal enzymes [3] = tested on: small intestinal enzymes
Source text: as §1

[4] = Clathrating action of ICM (amount of compound clathrated, gas-chromatography); format: physicochemical; details: 3-folds molar amount
Procedure: ICG5 used in Experiment 15, was dissolved in deionized water to make into an aqueous solution containing 20% (w/v) of ICG5. Twenty milliliters of the aqueous solution was admixed with 3-folds amount, on a molar basis to ICG5, of either of four kinds of short chain alcohols, i.e., methanol, ethanol, propanol, and butanol; four kinds of short chain fatty acids, i.e., acetic acid, propionic acid, n-butyric acid, and n-valeic acid; and four kinds of aromatic compounds, i.e., benzyl alcohol, phenethyl alcohol, 4-phenyl-1-propanol, and o-cresol; and then stirred the mixture to homogeneity for allowing ICG5 to clathrate the compound. Successively, each solution was filtrated, and the resulting filtrate was freeze-dried to remove unclathrated compound. In order to measure the amount of compound clathrated in the freeze-dried product, the amount of each compound in each freeze-dried product was determined by gas-chromatography. Alpha-CD was used as a control and subjected to the similar test.

[5] = Amino-carbonyl reaction with polypeptone; format: physicochemical; details: with 5% (w/v) polypeptone, 120° C., blank subtracted
Procedure: ICG5 used in Experiment 15 and commercially available polypeptone, commercialized by Nihon Pharmaceutical Co., Ltd., Tokyo, Japan, were dissolved in deionized water to make into an aqueous solution containing […] and 5% (w/v) of polypeptone. As a control, an aqueous solution containing α-CD and polypeptone was prepared in the same manner using α-CD in place of ICG5. Four milliliters each of the solution was put in a glass tube, sealed and then heated at 120° C. for 30, 60, or 90 min. After cooling the solutions in ambient temperature, the degrees of coloring of the solutions were measured to estimate the degree of amino-carbonyl reaction. As a blank test, a solution containing polypeptone only was heated in the same manner. The degree of coloring was defined as an absorbance at 480 nm using a 1 cm-cell after subtracting the absorbance of the blank test.

[6] = Amino-carbonyl reaction with glycine; format: physicochemical; details: 5% (w/v) saccharide + 1% (w/v) glycine, pH 7.0, 120° C., blank subtracted
Procedure: ICG5, used in Experiment 15 and commercially available super high-grade glycine were dissolved in deionized water, and then admixed with phosphate buffer to make into an aqueous ICG5 solution containing 5% (w/v) of ICG5 and 1% (w/v) glycine, adjusted to pH 7.0. As a control, an aqueous α-cyclodextrin (α-CD) solution containing α-CD and glycine was prepared in the same manner using α-CD in place of ICG5. Four milliliters each of the solution was put in a glass tube, sealed and then heated at 120° C. for 30, 60, or 90 min. After cooling the solutions in ambient temperature, the degrees of coloring of the solutions were measured to estimate the degree of amino-carbonyl reaction. As a blank test, a solution containing glycine only was heated in the same manner. The degree of coloring was defined as an absorbance at 480 nm using a 1 cm-cell after subtracting the absorbance of the blank test.

OC[C@H]1O[C@@H]2O[C@H]3[C@H](O)[C@@H](O)[C@@H](O[C@H]4[C@H](O)[C@@H](O)[C@@H](O[C@H]5[C@H](O)[C@@H](O)[C@@H](O[C@H]6[C@H](O)[C@@H](O)[C@@H](O[C@H]7[C@H](O)[C@@H](O)[C@@H](O[C@H]8[C@H](O)[C@@H](O)[C@@H](O[C@H]1[C@H](O)[C@H]2O)O[C@@H]8CO)O[C@@H]7CO)O[C@@H]6CO)O[C@@H]5CO)O[C@@H]4CO)O[C@@H]3CO [β-CD, β-cyclodextrin]
Digestion (pancreas α-amylase): 0.2% | Digestion (small intestinal enzymes [1]): 1.1% | Action (ICM-forming enzyme): − | Digestion (salivary α-amylase): 0% | Digestion [2]: 0%

OC[C@H]1O[C@@H]2O[C@H]3[C@H](O)[C@@H](O)[C@@H](O[C@H]4[C@H](O)[C@@H](O)[C@@H](O[C@H]5[C@H](O)[C@@H](O)[C@@H](O[C@H]6[C@H](O)[C@@H](O)[C@@H](O[C@H]7[C@H](O)[C@@H](O)[C@@H](O[C@H]1[C@H](O)[C@H]2O)O[C@@H]7CO)O[C@@H]6CO)O[C@@H]5CO)O[C@@H]4CO)O[C@@H]3CO [α-CD, α-cyclodextrin]
Digestion (small intestinal enzymes [3]): 0.2% | Amount of compound clathrated ([4]; objective compound: 4-Phenyl 1-propanol (aromatic compound)): 171.5 mg/g-freeze-dried product | Amount of compound clathrated ([4]; objective compound: Acetic acid (short chain fatty acid)): 15.1 mg/g-freeze-dried product | Amount of compound clathrated ([4]; objective compound: Benzyl alcohol (aromatic compound)): 165.7 mg/g-freeze-dried product | Amount of compound clathrated ([4]; objective compound: Butanol (short chain alcohol)): 79.5 mg/g-freeze-dried product | Amount of compound clathrated ([4]; objective compound: Ethanol (short chain alcohol)): 36.7 mg/g-freeze-dried product | Amount of compound clathrated ([4]; objective compound: Methanol (short chain alcohol)): 16.7 mg/g-freeze-dried product | Amount of compound clathrated ([4]; objective compound: Phenethyl alcohol (aromatic compound)): 144.4 mg/g-freeze-dried product | Amount of compound clathrated ([4]; objective compound: Propanol (short chain alcohol)): 66.8 mg/g-freeze-dried product | Amount of compound clathrated ([4]; objective compound: Propionic acid (short chain fatty acid)): 16.6 mg/g-freeze-dried product | Amount of compound clathrated ([4]; objective compound: n-Butyric acid (short chain fatty acid)): 13.2 mg/g-freeze-dried product | Amount of compound clathrated ([4]; objective compound: n-Valeic acid (short chain fatty acid)): 45.0 mg/g-freeze-dried product | Amount of compound clathrated ([4]; objective compound: o-Cresol (aromatic compound)): 49.5 mg/g-freeze-dried product | Digestion (pancreas α-amylase): 0% | Degree of coloring ([5]; heating time 0 min): 0.01 A480 nm | Degree of coloring ([5]; heating time 30 min): 0.03 A480 nm | Degree of coloring ([5]; heating time 60 min): 0.04 A480 nm | Degree of coloring ([5]; heating time 90 min): 0.06 A480 nm | Action (ICM-forming enzyme): − | Digestion (salivary α-amylase): 0% | Degree of coloring ([6]; heating time 0 min): 0.02 A480 nm | Degree of coloring ([6]; heating time 30 min): 0.02 A480 nm | Degree of coloring ([6]; heating time 60 min): 0.03 A480 nm | Degree of coloring ([6]; heating time 90 min): 0.02 A480 nm

OC[C@H]1O[C@@H]2O[C@H]3[C@H](O)[C@@H](O)[C@@H](O[C@H]4[C@H](O)[C@@H](O)[C@@H](O[C@H]5[C@H](O)[C@@H](O)[C@@H](O[C@H]6[C@H](O)[C@@H](O)[C@@H](O[C@H]7[C@H](O)[C@@H](O)[C@@H](O[C@H]8[C@H](O)[C@@H](O)[C@@H](O[C@H]9[C@H](O)[C@@H](O)[C@@H](O[C@H]1[C@H](O)[C@H]2O)O[C@@H]9CO)O[C@@H]8CO)O[C@@H]7CO)O[C@@H]6CO)O[C@@H]5CO)O[C@@H]4CO)O[C@@H]3CO [γ-CD, γ-cyclodextrin]
Digestion (pancreas α-amylase): 5.4% | Digestion (small intestinal enzymes [1]): 57.4% | Action (ICM-forming enzyme): − | Digestion (salivary α-amylase): 0.1% | Digestion [2]: 0%
